Experimental data as given in ChEMBL document CHEMBL3351528, “Targeting dopamine D3 and serotonin 5-HT1A and 5-HT2A receptors for developing effective antipsychotics: synthesis, biological characterization, and behavioral studies” (J Med Chem, 2014).
pKi: −log10 of the molar value.

Assays:
[1] = biological target: D(2) dopamine receptor (Homo sapiens, UniProt P14416)
Description: Binding affinity to dopamine D2 receptor (unknown origin)

[2] = biological target: 5-hydroxytryptamine receptor 2A (Homo sapiens, UniProt P28223)
Description: Binding affinity to 5HT2A receptor (unknown origin)

[3] = test system: Mus musculus; test: Antipsychotic-like activity in orally dosed NMRI mouse assessed as reduction in MK801-induced locomotor activity dosed 15 to 30 mins before administration of MK801 measured for 60 mins; assay type: functional; details: po, read-out: MED
[4] = test system: Mus musculus; test: Toxicity in NMRI mouse assessed as induction of catalepsy up to 90 mg/kg, sc dosed 30 mins before test; assay type: organism-based; parameters: dose 90 mg/kg, route subcutaneous; details: in vivo, 0.5 h
[5] = biological target: T1, Adrenergic receptor alpha-2 (Homo sapiens, UniProt P08913+P18825+P18089); test: Binding affinity to alpha2 adrenoreceptor (unknown origin); assay type: protein assay
T1 sequence (P08913 whole entry): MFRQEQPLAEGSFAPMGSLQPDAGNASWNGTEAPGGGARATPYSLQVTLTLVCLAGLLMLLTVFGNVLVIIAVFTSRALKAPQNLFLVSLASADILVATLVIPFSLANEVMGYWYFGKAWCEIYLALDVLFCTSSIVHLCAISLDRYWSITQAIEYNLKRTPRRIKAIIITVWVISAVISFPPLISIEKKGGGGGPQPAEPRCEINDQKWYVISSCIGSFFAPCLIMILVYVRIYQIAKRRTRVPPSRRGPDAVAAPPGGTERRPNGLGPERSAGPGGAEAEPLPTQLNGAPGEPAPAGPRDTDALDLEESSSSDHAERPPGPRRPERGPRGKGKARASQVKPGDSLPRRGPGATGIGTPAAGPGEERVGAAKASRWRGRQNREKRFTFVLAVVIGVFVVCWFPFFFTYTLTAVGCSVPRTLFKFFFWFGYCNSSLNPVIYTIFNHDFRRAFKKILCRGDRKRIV
T1 sequence (P18825 whole entry): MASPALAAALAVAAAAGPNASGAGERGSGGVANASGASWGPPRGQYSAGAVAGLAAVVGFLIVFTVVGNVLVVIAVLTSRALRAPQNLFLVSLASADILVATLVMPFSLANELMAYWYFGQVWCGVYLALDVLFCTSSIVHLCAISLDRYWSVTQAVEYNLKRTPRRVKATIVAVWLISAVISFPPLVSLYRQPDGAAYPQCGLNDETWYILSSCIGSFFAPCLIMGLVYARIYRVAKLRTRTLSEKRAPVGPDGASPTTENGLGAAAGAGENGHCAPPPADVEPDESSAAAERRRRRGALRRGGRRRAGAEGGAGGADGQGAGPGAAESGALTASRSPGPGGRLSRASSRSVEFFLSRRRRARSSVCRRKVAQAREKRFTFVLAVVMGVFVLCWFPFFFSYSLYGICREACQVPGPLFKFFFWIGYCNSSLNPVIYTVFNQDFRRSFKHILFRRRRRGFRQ
T1 sequence (P18089 whole entry): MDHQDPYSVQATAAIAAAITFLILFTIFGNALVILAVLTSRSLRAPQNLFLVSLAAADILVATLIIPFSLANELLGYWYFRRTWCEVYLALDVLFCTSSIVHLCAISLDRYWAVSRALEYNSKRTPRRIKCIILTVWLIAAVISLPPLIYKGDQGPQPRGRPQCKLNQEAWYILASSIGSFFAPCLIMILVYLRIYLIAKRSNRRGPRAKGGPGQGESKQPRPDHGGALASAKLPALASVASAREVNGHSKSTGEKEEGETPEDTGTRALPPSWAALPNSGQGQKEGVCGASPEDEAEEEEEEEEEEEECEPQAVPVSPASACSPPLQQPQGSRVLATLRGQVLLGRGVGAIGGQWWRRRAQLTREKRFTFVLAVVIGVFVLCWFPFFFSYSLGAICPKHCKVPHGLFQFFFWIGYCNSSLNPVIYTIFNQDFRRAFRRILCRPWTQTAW

[6] = biological target: hERG (KCNH2) (Homo sapiens, UniProt Q12809); test: Inhibition of human ERG at 3 uM by whole cell based electrophysiology assay
[7] = test system: Heart; test: Cardiotoxicity in Langendorff-perfused Sprague-Dawley rat heart assessed as effect on left ventricle pressure up to 10 uM; assay type: toxicity, tissue-based
[8] = test system: Heart; test: Cardiotoxicity in Langendorff-perfused Sprague-Dawley rat heart assessed as effect on coronary perfusion pressure up to 10 uM; assay type: toxicity, tissue-based
[9] = test system: Mus musculus; test: Toxicity in mouse assessed as induction of memory impairment by measuring […] to enter dark compartment at 60 mg/kg, po administered 30 mins before training by passive avoidance test; assay type: organism-based; parameters: dose 60 mg/kg, route oral; details: in vivo, 0.5 h
[10] = test system: Mus musculus; test: Toxicity in mouse assessed as induction of memory impairment by measuring […] to enter dark compartment at 60 mg/kg, po administered 30 mins before training measured 24 hrs after acquisition trail by passive avoidance test; assay type: organism-based; parameters: dose 60 mg/kg, route oral; details: in vivo
[11] = test system: Mus musculus; test: Effect on startle response in mouse at 3 to 30 mg/kg, po; assay type: ADME, organism-based; parameters: dose 3-30 mg/kg, route oral; details: in vivo
[12] = biological target: T2, 5-hydroxytryptamine receptor 2C (Homo sapiens, UniProt P28335)
T2 sequence (P28335 whole entry): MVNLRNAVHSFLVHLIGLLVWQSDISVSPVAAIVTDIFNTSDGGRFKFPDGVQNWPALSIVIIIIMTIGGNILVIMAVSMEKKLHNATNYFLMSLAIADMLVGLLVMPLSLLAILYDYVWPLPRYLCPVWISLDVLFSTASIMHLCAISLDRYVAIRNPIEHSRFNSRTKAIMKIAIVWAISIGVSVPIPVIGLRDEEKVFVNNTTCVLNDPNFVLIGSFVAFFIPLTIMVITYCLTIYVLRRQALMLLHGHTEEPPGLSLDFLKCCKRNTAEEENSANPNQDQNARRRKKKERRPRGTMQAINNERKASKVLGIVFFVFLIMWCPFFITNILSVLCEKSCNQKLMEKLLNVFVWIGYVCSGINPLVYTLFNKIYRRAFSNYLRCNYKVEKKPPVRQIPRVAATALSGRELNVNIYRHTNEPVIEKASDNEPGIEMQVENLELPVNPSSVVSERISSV
Description: Binding affinity to 5HT2C receptor (unknown origin)

hERG (KCNH2), sequence (Q12809 whole entry, the tested form may be a part): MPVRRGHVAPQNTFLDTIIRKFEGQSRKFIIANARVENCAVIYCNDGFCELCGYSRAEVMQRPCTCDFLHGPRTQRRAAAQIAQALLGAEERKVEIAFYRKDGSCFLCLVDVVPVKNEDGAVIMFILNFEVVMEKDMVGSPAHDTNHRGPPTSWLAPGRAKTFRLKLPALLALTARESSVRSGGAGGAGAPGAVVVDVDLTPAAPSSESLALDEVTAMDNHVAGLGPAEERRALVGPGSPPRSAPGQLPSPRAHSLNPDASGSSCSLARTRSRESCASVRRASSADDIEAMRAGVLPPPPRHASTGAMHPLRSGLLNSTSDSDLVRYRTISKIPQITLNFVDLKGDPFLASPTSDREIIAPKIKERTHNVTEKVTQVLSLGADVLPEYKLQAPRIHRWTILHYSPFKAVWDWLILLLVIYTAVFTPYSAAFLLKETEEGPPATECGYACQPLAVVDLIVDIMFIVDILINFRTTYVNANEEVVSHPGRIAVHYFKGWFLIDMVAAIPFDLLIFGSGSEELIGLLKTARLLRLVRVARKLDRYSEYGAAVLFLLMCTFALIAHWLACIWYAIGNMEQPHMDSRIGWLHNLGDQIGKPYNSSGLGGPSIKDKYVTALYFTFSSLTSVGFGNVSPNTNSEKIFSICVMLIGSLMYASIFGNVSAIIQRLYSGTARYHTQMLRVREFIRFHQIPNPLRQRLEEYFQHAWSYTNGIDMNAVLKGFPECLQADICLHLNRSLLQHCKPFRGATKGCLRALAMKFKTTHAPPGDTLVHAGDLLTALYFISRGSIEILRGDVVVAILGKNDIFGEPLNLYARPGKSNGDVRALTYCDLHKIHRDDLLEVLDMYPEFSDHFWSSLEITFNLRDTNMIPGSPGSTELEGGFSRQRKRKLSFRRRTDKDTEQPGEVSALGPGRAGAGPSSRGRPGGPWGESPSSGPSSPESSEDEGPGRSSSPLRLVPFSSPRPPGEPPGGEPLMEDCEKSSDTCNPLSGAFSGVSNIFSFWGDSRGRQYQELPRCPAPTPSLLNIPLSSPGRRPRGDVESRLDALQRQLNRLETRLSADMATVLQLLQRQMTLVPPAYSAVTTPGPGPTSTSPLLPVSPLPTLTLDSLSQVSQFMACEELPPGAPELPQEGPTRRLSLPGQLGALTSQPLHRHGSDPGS
5-hydroxytryptamine receptor 2A, sequence (P28223 whole entry): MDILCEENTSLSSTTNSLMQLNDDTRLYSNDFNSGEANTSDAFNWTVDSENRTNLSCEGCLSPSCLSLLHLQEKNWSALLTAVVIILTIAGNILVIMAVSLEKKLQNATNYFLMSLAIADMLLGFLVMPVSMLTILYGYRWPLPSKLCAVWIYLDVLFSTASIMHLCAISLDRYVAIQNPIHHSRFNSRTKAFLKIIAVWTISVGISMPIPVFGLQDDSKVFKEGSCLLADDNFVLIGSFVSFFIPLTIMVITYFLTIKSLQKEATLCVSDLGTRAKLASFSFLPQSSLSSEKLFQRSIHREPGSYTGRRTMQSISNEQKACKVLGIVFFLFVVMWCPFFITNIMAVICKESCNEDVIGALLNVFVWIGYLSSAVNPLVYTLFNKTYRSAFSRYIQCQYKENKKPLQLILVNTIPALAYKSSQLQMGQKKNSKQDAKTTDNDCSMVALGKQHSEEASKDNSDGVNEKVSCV
D(2) dopamine receptor, sequence (P14416 whole entry): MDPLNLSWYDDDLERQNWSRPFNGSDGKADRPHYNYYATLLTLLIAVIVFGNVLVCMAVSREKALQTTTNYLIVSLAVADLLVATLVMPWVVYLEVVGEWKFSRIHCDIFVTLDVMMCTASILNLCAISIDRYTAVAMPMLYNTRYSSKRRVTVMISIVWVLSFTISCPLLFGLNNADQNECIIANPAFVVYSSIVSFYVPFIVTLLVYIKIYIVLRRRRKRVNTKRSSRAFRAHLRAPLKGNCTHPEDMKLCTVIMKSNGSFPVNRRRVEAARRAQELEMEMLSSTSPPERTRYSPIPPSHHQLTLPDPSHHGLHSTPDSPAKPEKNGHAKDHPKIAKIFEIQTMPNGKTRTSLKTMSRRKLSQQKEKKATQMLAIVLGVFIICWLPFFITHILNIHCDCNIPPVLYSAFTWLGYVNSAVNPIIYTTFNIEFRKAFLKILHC

pKi [1]: < 6.00
pKi [2]: 7.18
Ki [5]: 150 nM
pKi [12]: < 6.00
Compound: O=C(NCCCCN1CCN(c2ccccc2)CC1)c1ccc2ncccc2c1
minimal effective dose [3]: 10 mg/kg
Activity [4]: Non-toxic
inhibition at 3 µM [6]: 24%
Activity [7]: Non-toxic
Activity [8]: Non-toxic
Activity [9]: Toxic
Activity [10]: Non-toxic
Activity [11]: Non-toxic
